Data set [1] relates to HeLa-ACE2 cells. The data set can be described thus: cells. In kind it is cell-based, human. As to conditions: Homo sapiens, HeLa-ACE2, read-out: HeLa-ACE-2 EC50 [μM] (Geomeans, n ≥ 2).
The test system of data set [2] is SARS-CoV-2. The data set can be described thus: Checkerboard synergy study with remdesivir (ZIP model, synergyfinder). In kind it is cell-based.
Data set [3] concerns SARS-CoV-2.
A short description of a further data set: in vitro. As to conditions: human.
The conditions of data set [4]: mouse, cited from earlier work.
The subject of data set [5] is SARS-CoV-2. Briefly: microbe, parasite or virus in culture.
The test system of data set [6] is SARS-CoV-2. Briefly: Time of addition (TOA) assay in HeLa-ACE2 cells. Format: cell-based. Particulars: 10 μM, HeLa-ACE2, time course 4 to 24 hpi.
Data set [7] deals with SARS-CoV-2. The data set can be described thus: SARS-CoV-2 primary ALI HBEC model. In kind it is cell-based. As to conditions: apical washes 72 hpi. As for the experimental part: SARS-CoV-2 primary ALI HBEC model. Normal primary human bronchial epithelial cells (HBECs) (Lonza) were cultured in Millicell-96 cell culture insert plates with 1 μm PET filters (Sigma) at an air liquid interface for at least 4 weeks using PneumaCult™-ALI Medium (Stemcell Technologies). Briefly, the HBECs were first expanded in cell culture flasks before seeding 10,000 cells per well submerged in PneumaCult™-Ex Plus Medium. After 1 week, the cells were switched into PneumaCult™-ALI Medium and medium was removed from the apical surface. The air liquid interface was maintained, and the medium exchanged every 2-3 days for at least 4 weeks to allow for differentiation of the cells. Prior to infection, the apical surface was rinsed once with DPBS and compounds were added to the basolateral chamber. 20,000 PFU SARS-CoV-2 strain USA-WA1/2020 were added to the apical surface in 50 μL PBS and allowed to incubate for 2 h. The inoculum was then removed, and the cells rinsed once with DPBS. The medium was exchanged, and fresh compound added at 24 and 48 h post-infection. Apical washes were collected at 72 h post-infection by adding 100 μL DPBS to the apical surface for 15 minutes. RNA was isolated from the apical washes using the PureLink™ Pro 96 Viral RNA/DNA Purification Kit (Thermo Fisher) and analyzed for viral RNA levels by RT-qPCR using the SuperScript™ III Platinum™ One-Step qRT-PCR Kit (Thermo Fisher) and the 2019-nCoV N1 CDC Primers and Probe set (Integrated DNA Technologies). A standard curve was generated by isolating RNA from serial dilutions of the stock virus and used to determine the PFU equivalents/mL for each sample. The viral load reductions were then determined for each experimental compound treatment compared to the neutral DMSO control and plotted in log scale. Cytotoxicity was assessed by measuring LDH activity in the basolateral media using a Cytotoxicity Detection kit (LDH) (Sigma) following the manufacturer's instructions. […] Technical triplicates were run for both antiviral and cytotoxicity readouts. […]

The test system of data set [8] is HeLa-ACE2 cells. Particulars: human.
The conditions of data set [9]: COVID-19 patients; shortened from 15; cited from earlier work.
For data set [10] the following is noted: in vivo; cited from earlier work.
The conditions of data set [11]: human, oral; cited from earlier work.
Data set [12] has as its system SARS-CoV-2. Briefly: microbe, parasite or virus in culture. As to conditions: Severe acute respiratory syndrome coronavirus 2, Calu-3, read-out: Calu-3 SARS-CoV-2 EC50.
The conditions of data set [13]: rat, oral; cited from earlier work.
[14] abbreviates: CC50 [μM] (Geomeans, n ≥ 2 except where indicated: *n = 1).
The mark [15] stands for this setting: Severe acute respiratory syndrome coronavirus 2, HeLa-ACE2, 24 h, read-out: CoV-2 EC50 [μM] (Geomeans, n ≥ 2).
The mark [16] stands for this setting: Severe acute respiratory syndrome coronavirus 2, HeLa-ACE2, read-out: SARS CoV-2 EC50 (μM).

The structures appear in SMILES notation. Like-named read-outs stand apart in the source and are kept apart here.

Take `CCN1CCC(c2cc(C)c3nc(-c4cc5c(C)nc(C)cn5n4)cc(=O)n3c2)CC1` [SMN-C3]: the EC50 with HeLa-ACE2 cells [1] is over 8.14 µM; with SARS-CoV-2 [5] (setting [15]), 1.4 µM; in the data set with SARS-CoV-2 [5] (setting [16]) it was 1.4 µM. For the same molecule, the “Synergy score with remdesivir (δ)” value in the data set on SARS-CoV-2 [2] (Table 1, ZIP model, δ>10 synergy, δ<−10 antagonism, between additive) was −0.365; in the data set with SARS-CoV-2 [2] (Table 3), −0.37. For the same molecule, the “HeLa-ACE2 CC50/CoV-2 EC50” value with SARS-CoV-2 [3] turned out to be 5.12. The CC50 in the data set “in vitro” (setting [14]) and in “in vitro” (Uninfected HeLa-ACE2 CC50 (μM)) was 7.16 µM in each case. The Cmax in data set [4] (oral) is about 2000 nM.

On to `CCC(CC)COC(=O)[C@H](C)N[P@](=O)(OC[C@H]1O[C@@](C#N)(c2ccc3c(N)ncnn23)[C@H](O)[C@@H]1O)Oc1ccccc1` [Remdesivir], for which the EC50 in the data set with HeLa-ACE2 cells [1] is over 9.6 µM; in the data set on SARS-CoV-2 [3] (read-out: SARS-CoV-2 EC50), 0.3 µM; in the data set with SARS-CoV-2 [5] (setting [15]) it was 0.127 µM; in the data set with SARS-CoV-2 [5] (setting [16]) it was 0.127 µM; in the data set on SARS-CoV-2 [5] (Severe acute respiratory syndrome coronavirus 2, HeLa-ACE2, read-out: SARS-CoV-2 EC50), 0.194 ± 0.02 µM; in the data set on SARS-CoV-2 [12], 0.444 µM. Also, the “activity when treatment initiated at 1 hpi” value with SARS-CoV-2 [6] is reported as “effectively blocked the infection”. Moreover, the “viral replication in ALI-HBECs” value in the data set with SARS-CoV-2 [7] is “inhibited viral replication”. For the same molecule, the “HeLa-ACE2 CC50/CoV-2 EC50” value in the data set on SARS-CoV-2 [3] is 78.7. In addition, the “increase in EC50 from MOI=1 to MOI=26” value in the data set with SARS-CoV-2 [3] is reported as 2.7 fold. For the same molecule, the figures for the CC50 in the data set on HeLa-ACE2 cells [8], in the data set “in vitro” (Uninfected HeLa-ACE2 CC50 (μM)) and in “in vitro” (uninfected HeLa-ACE2 CC50) were 9.97 µM, over 8.46 µM and over 40 µM, respectively. Besides, the “median time to recovery” value in [9] is 11 days. Also, in data set [10], the “mortality of hospitalized COVID-19 patients” value is reported as “failed to reduce mortality”. The highest concentration (Cmax) in data set [11] was about 5000 nM. For the same molecule, the t1/2 in data set [11] was ~1 h (human oral)(15).

Turning to `COc1cc(-n2cnc3cc(-c4ccc(Cl)cc4)sc3c2=O)ccc1OCCN1CCCC1` [GW-803430], in the data set with SARS-CoV-2 [3], the “HeLa-ACE2 CC50/CoV-2 EC50” value came to 11.16. Further, the CC50 in the data set “in vitro” (setting [14]) is 18.9 µM. Also, the maximum concentration (Cmax) in data set [13] was about 585 nM. For the same molecule, in [4], the t1/2 is given as ~11 h (mouse)(38). The EC50 in the data set with SARS-CoV-2 [5] (setting [15]) came out at 1.7 µM.
